This is an account of results in patent US5807981A (FibroGen Inc., priority 1995, dated 1998).

Read-outs that look alike come from different tables or passages of the source. Starred links: 1 amine or outer side, 2 acyl side, 3 side chain; linkers in the order of their positions; H or OH if unused. Non-standard residues stand in square brackets, D forms with d. Residues, ends and D or L forms follow the SMILES beside them. *: point of attachment. Sta = CC(C)C[C@H](N)[C@@H](O)CC(=O)O; Isovaleryl = CC(C)CC(=O)*; CO = O=C([*:1])[*:2]

Experiment [1] deals with T1, C-proteinase (Homo sapiens, UniProt P13497).
T1 sequence (P13497 121-986): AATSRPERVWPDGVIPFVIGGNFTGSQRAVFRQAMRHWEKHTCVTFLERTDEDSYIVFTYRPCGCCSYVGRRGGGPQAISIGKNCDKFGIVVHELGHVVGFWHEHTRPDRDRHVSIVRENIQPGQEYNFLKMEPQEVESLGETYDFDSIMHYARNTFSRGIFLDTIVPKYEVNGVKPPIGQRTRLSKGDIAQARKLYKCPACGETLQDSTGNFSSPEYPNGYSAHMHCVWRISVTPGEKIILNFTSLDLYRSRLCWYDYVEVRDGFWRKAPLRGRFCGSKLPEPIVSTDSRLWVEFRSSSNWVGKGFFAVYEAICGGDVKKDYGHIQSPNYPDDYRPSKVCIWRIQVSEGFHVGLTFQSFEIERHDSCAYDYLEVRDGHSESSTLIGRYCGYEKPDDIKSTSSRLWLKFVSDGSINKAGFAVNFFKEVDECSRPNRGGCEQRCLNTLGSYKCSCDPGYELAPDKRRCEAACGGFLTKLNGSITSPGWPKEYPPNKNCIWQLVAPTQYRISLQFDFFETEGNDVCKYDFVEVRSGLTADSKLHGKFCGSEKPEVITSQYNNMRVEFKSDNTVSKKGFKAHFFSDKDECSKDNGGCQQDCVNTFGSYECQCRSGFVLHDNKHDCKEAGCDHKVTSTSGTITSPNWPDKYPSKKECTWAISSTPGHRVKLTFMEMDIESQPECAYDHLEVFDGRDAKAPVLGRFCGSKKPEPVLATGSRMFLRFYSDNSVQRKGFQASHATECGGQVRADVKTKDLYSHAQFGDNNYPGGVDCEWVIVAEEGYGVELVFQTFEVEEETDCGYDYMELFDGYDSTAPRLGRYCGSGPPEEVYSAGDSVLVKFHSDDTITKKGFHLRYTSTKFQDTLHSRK
Put plainly: Cleavage of synthetic procollagen cleavage-site peptides by active C-proteinase. Conditions: for Cleavability: Table 1, cleavability of peptides resembling the C-proteinase cleavage site of procollagen; for cleavability by C-proteinase: truncated and extended peptides compared with original peptide SEQ ID NO:6. Format: biochemical. From the text:
A variety of short peptides comprising five (5) to twelve (12) amino acids was synthesized and tested for cleavage by active C-proteinase.
First, four peptides, each comprising eight (8) amino acids corresponding to the cleavage region of several procollagens were synthesized. See, TABLE 1, SEQ ID NO:3, SEQ ID NO:4, SEQ ID NO:5, and SEQ ID NO:6. All four peptides were examined for cleavability by C-proteinase. […] Indeed, one would expect that recognition of the cleavage site depends on structural requirements which cannot be resembled by only eight (8) amino acids.
Second, a series of peptides was prepared based on the sequence of original peptide SEQ ID NO:6. Specifically, peptides were designed resembling the core of the peptide comprising SEQ ID NO:6, but with truncations of one, two and three amino acids from either side of the cleavage site. A further peptide was synthesized resembling two additional amino acids at both the N-terminus and C-terminus of the original peptide comprising SEQ ID NO:6.
Removing two or more amino acids from either end of the original SEQ ID NO:6 sequence, however, yielded a non-cleavable peptide (SEQ ID NOS:9, 10, 12, 13).

Experiment [2] relates to C-proteinase. Conditions: cited from earlier work; for inhibition of C-proteinase activity (in words) / inhibitory at low concentrations / concentrations at which inhibitory: background, prior art.

For the molecule `CC(=O)N1CCC[C@H]1C(=O)N[C@@H](Cc1ccc(O)cc1)C(=O)N[C@@H](Cc1ccc(O)cc1)C(=O)NCC(=O)N[C@@H](CC(=O)O)C(=O)N[C@@H](CCC(=O)O)C(N)=O` [SEQ ID NO:9, Ac-PYYG-DE-NH2] (Ac-PYYGDE-NH2), at C-proteinase [1], the Cleavability result was “none” and the “cleavability by C-proteinase” value is “non-cleavable”. With `CC(=O)N[C@@H](Cc1ccccc1)C(=O)N[C@@H](Cc1ccc(O)cc1)C(=O)N[C@@H](CCCNC(=N)N)C(=O)N[C@@H](C)C(=O)N[C@@H](CC(=O)O)C(=O)N[C@@H](CCC(N)=O)C(=O)N1CCC[C@H]1C(=O)N[C@@H](CCCNC(=N)N)C(N)=O` [SEQ ID NO:4, Ac-FYRA-DQPR-NH2] (Ac-FYRADQPR-NH2), at C-proteinase [1], the Cleavability result is “slight” and the “cleavability by C-proteinase” value is given as “cleaved by C-proteinase”. For the molecule `CC(C)C[C@H](NC(=O)[C@@H](NC(=O)N[C@@H](Cc1ccccc1)C(=O)O)[C@@H]1CCN=C(N)N1)C(=O)N[C@H](C=O)Cc1ccccc1` [chymostatin], the “inhibition of C-proteinase activity (in words)” value (shortened to “inhibition … (in words)”) in the experiment with C-proteinase [2] is reported as “relatively strong inhibitors”.

Consider `[Zn+2]` [Zn^2+], for which the “inhibitory at low concentrations” value in the experiment with C-proteinase [2] is given as “inhibitory at low concentrations”. For the molecule `CC(C)CC(=O)N[C@H](C(=O)N[C@H](C(=O)N[C@@H](CC(C)C)[C@@H](O)CC(=O)N[C@@H](C)C(=O)N[C@@H](CC(C)C)[C@@H](O)CC(=O)O)C(C)C)C(C)C` [pepstatin A] (Isovaleryl-VV[Sta]A[Sta]-OH), in the experiment on C-proteinase [2], the “inhibition … (in words)” value is “relatively strong inhibitors”.

`NCCCC[C@H](N)C(=O)O` [lysine]: in the experiment with C-proteinase [2], the “inhibition … (in words)” value was “inhibited”. With `[Cu+2]` [Cu^2+], in the experiment on C-proteinase [2], the “inhibitory at low concentrations” value was “inhibitory at low concentrations”. Turning to `CSCC[C@H](NC(=O)[C@@H]1CCCN1C(=O)[C@H](CCC(=O)O)NC(=O)[C@H](CC(=O)O)NC(=O)CNC(=O)[C@H](Cc1ccc(O)cc1)NC(=O)[C@H](Cc1ccc(O)cc1)NC(=O)[C@@H]1CCCN1C(=O)[C@H](C)NC(=O)[C@H](Cc1ccccc1)NC(C)=O)C(=O)N[C@@H](CC(=O)O)C(=O)N[C@@H](Cc1ccccc1)C(N)=O` [SEQ ID NO:7, Ac-FAPYYG-DEPMDF-NH2] (Ac-FAPYYGDEPMDF-NH2), at C-proteinase [1], the Cleavability entry is reported as “excellent” and the “cleavability by C-proteinase” value was “did not impact its cleavability”. `CC(C)C[C@@H](N)[C@H](O)C(=O)N[C@H](C(=O)N[C@H](C(=O)N[C@@H](CC(=O)O)C(=O)O)C(C)C)C(C)C` [amastatin]: in the experiment on C-proteinase [2], the “inhibition … (in words)” value is “weak or no effect”.

`CCCCCCCCCCCCOS(=O)(=O)[O-].[Na+]` [SDS]: in the experiment on C-proteinase [2], the “inhibitory at low concentrations” value is on record as “inhibitory at low concentrations”. Turning to Tris-HCl [Tris-HCl buffer], the “inhibition of C-proteinase activity by buffer” value in the experiment on C-proteinase [2] (concentration of 0.2-0.5M) is “markedly inhibited activity”. As for `CC(=O)N1CCC[C@H]1C(=O)N[C@@H](Cc1ccc(O)cc1)C(=O)N[C@@H](Cc1ccc(O)cc1)C(=O)NCC(=O)N[C@@H](CC(=O)O)C(N)=O` [SEQ ID NO:10, Ac-PYYG-D-NH2] (Ac-PYYGD-NH2), on C-proteinase [1], the Cleavability entry is “none” and the “cleavability by C-proteinase” value is on record as “non-cleavable”. In the same order, the values of `CSCC[C@H](NC(=O)[C@H](Cc1ccc(O)cc1)NC(C)=O)C(=O)N[C@@H](CCCNC(=N)N)C(=O)N[C@@H](C)C(=O)N[C@@H](CC(=O)O)C(=O)N[C@@H](CCC(N)=O)C(=O)N[C@@H](C)C(=O)N[C@@H](C)C(N)=O` [SEQ ID NO:5, Ac-YMRA-DQAA-NH2] (Ac-YMRADQAA-NH2) are “slight” and “cleaved by C-proteinase”. On to `CC(C)[C@H](NC(=O)[C@H](CCCNC(=N)N)NC(=O)N[C@@H](Cc1ccccc1)C(=O)O)C(=O)N[C@H](C=O)CCCNC(=N)N` [antipain] ({Phe-CO}-Arg-Val-Arg-aldehyde), for which the “inhibition … (in words)” value with C-proteinase [2] is “weak or no effect”.

With `CC(=O)N[C@@H](CC(C)C)C(=O)N[C@@H](CC(C)C)C(=O)N[C@H](C=O)CCCNC(=N)N` [leupeptin], the “inhibition … (in words)” value in the experiment on C-proteinase [2] is recorded as “weak or no effect”.

Take α2 -Macroglobulin: the “inhibition … (in words)” value in the experiment on C-proteinase [2] is listed as “at least partially inhibit”.

Turning to `[Cl-].[Na+]` [NaCl], the “activity relative to that observed with the standard assay concentration of 0.15M” value with C-proteinase [2] (0.2M NaCl) is 66%; with C-proteinase [2] (0.3M NaCl), 38%; in the experiment on C-proteinase [2] (0.5M NaCl), 25%. With `N.N.O=S(=O)(O)O` [ammonium sulfate], in the experiment with C-proteinase [2], the “concentrations at which inhibitory” value is 1 to 10 mM.

Turning to `CC(C)C[C@H](NP(=O)(O)O[C@@H]1O[C@@H](C)[C@H](O)[C@@H](O)[C@H]1O)C(=O)N[C@@H](Cc1c[nH]c2ccccc12)C(=O)O` [phosphoramidon], in the experiment with C-proteinase [2], the “inhibition … (in words)” value was “weak or no effect”. Consider `N=C(N)NCCC[C@H](N)C(=O)O` [arginine], for which the “inhibition … (in words)” value in the experiment with C-proteinase [2] is reported as “inhibited”. Turning to phosphate, the “concentrations at which inhibitory” value in the experiment with C-proteinase [2] was 1 to 10 mM. On to `O[C@H](CS)[C@H](O)CS` (racemic) [Dithiothreitol], for which, in the experiment with C-proteinase [2], the “inhibitory at low concentrations” value was “inhibitory at low concentrations”. Consider concanavalin A, for which the “inhibitory at low concentrations” value in the experiment with C-proteinase [2] is recorded as “inhibitory at low concentrations”.

Consider `[Cd+2]` [Cd^2+], for which the “inhibitory at low concentrations” value in the experiment with C-proteinase [2] is reported as “inhibitory at low concentrations”. On to `CC(C)C[C@H](NC(=O)[C@@H](O)[C@H](N)Cc1ccccc1)C(=O)O` [bestatin], for which, in the experiment on C-proteinase [2], the “inhibition … (in words)” value is “weak or no effect”. Regarding `CC(C)C[C@H](NC(=O)N[C@H](C(=O)N[C@@H](CCC(N)=O)C(=O)N[C@@H](C)C=O)[C@@H]1CCNC(=N)N1)C(=O)O` [elastinal], in the experiment on C-proteinase [2], the “inhibition … (in words)” value is given as “weak or no effect”.

B1: ovostatin (protein, UniProt P20740 37-1473, looked up)
Ovostatin: KEPEPQYVLMVPAVLQSDSPSQVCLQFFNLNQTISVRVVLEYDTINTTIFEKNTTTSNGLQCLNFMIPPVTSVSLAFISFTAKGTTFDLKERRSVMIWNMESFVFVQTDKPIYKPGQSVMFRVVALDFNFKPVQEMYPLIAVQDPQNNRIFQWQNVTSEINIVQIEFPLTEEPILGNYKIIVTKKSGERTSHSFLVEEYVLPKFDVTVTAPGSLTVMDSELTVKICAVYTYGQPVEGKVQLSVCRDFDSYGRCKKSPVCQSFTKDLDTDGCLSHILSSKVFELNRIGYKRNLDVKAIVTEKEQVCNLTATQSISITQVMSSLQFENVDHHYRRGIPYFGQIKLVDKDNSPISNKVIQLFVNNKNTHNFTTDINGIAPFSIDTSKIFDPELSLKALYKTSDQCHSEGWIEPSYPDASLSVQRLYSWTSSFVRIEPLWKDMSCGQKRMITVYYILNTEGYEHINIVNFYYVGMAKGKIVLTGEIKVNIQADQNGTFMIPLVVNEKMAPALRLLVYMLHPAKELVADSVRFSIEKCFKNKVQLQFSEKQMLTTSNVSLVIEAAANSFCAVRAVDKSMLLLKSETELSAETIYNLHPIQDLQGYIFNGLNLEDDPQDPCVSSDDIFHKGLYYRPLTSGLGPDVYQFLRDMGMKFFTNSKIRQPTVCTRETVRPPSYFLNAGFTASTHHVKLSAEVAREERGKRHILETIREFFPETWIWDIILINSTGKASVSYTIPDTITEWKASAFCVEELAGFGMSVPATLTAFQPFFVDLTLPYSIIHGEDFLVRANVFNYLNHCIKINVLLLESLDYQAKLISPEDDGCVCAKIRKSYVWNIFPKGTGDVLFSITAETNDDEACEEEALRNIRIDYRDTQIRALLVEPEGIRREETQNFLICMKDDVISQDVAIDLPTNVVEGSPRPSFSVVGDIMGTAIQNVHQLLQMPFGNGEQNMVLFAPNIYVLDYLDKTRQLSEDVKSKTIGYLVSGYQKQLSYKHPDGSYSTFGIRDKEGNTWLTAFVYKSFAEASRFIYIDDNVQAQTLIWLATKQKTDGCFQSTGILVNNAMKGGVENELSLSAYITIALLEAGHSMSHTVIRNAFYCLETASEKNITDIYTQALVAYAFCLAGKAEICESFLRELQKSAKEVDGSKYWEQNQRSAPEKSHLLDHVQSTDVEITSYVLLALLYKPNRSQEDLTKASAIVQWIIRQQNSYGGFASMQDTVVALQALAAYGAATYNSVTQNVIKINSKNTFEKVFTVNNENRLLLQQTPLPQVPGKYSLTVNGTGCVLIQTALRYNIHLPEGAFGFSLSVQTSNASCPRDQPGKFDIVLISSYTGKRSSSNMVIIDVKMLSGFVPVKSSLDQLIDDHTVMQVEYKKNHVLLYLGNILQKRRKEVTFSVEQDFVVTHPKPAPVQIYDYYETEEYAVAEYMSLCRGVVEEMG
B1: the “inhibition … (in words)” value in the experiment with C-proteinase [2] is on record as “at least partially inhibit”.
